For assay [1], the system named is promoter of yeast gene YCR102c. Format: cell-based, Saccharomyces cerevisiae W303. An excerpt:
(§1) The inventors of the present application understood that the induction of certain yeast genes by toxic substances is caused by the activation of the promoters of the genes by the toxic substances. Thus, the inventors prepared a vector that comprised a polynucleotide sequence comprising the promoter of the yeast gene, which sequence is operably linked to a polynucleotide encoding a marker protein; and transformed yeast cells with the vector. […] The working examples hereinafter illustrate the preparation of such vectors, transformation of yeast cells by use of said vectors, and the detection of toxic substances by use of the transformed cells.
(§2) Promoter assay is a method for determining variations of the level of intracellular genes without destroying cells on the basis of the level of expressed marker genes instead of the expressed mRNA. The gene selected to detect a chemical substance is expressed in the absence of chemical substances, and thus a marker protein also occurs in the absence of chemical substances. In the method according to the present invention, the behavior of yeast genes on the addition of test materials is determined on the basis of the level of expressed marker protein so that the presence or the absence, and the kind of toxic chemical substances are predicted. Thus, it is desired that the production of marker proteins is lower in the absence of chemical substances, and the production of marker proteins is higher in the presence of chemical substances.
(§3) Type YEp shuttle vector pYES2 (pYES2, Cat no: V825-20, Invirtogen Corporation, USA), which can be replicated both in E. coli. and yeast was used as vector (R. W. Old, S. B. Primrose Principles of Gene Manipulation 5th Ed., BAIFUKAN CO., LTD, pp138-165, pp.234-263, 2000). The portion of vector PQBI 63 (Cat no.54-0082, Wako Pure Chemical Industries, Ltd.) corresponding to a marker protein GFP was used as the polynucleotide encoding GFP (SEQ ID No: 6). First, the GFP polynucleotide was inserted into the multiple cloning sites of pYES2 to give a vector. Thereafter, the GALL promoter of pYES2 was replaced with the polynucleotide comprising the promoter sequence of the intended yeast gene YCR102c (SEQ ID No: 2) to give an intended plasmid vector. Suitable restriction enzymes were selected, and the insertion of the polynucleotide comprising GFP and the promoter sequence was conducted.
(§4) Next, the yeast Saccharomyces cerevisiae W303 was transformed with the resultant plasmid vector according to the following procedures: • 1) Incubating the yeast Saccharomyces cerevisiae W303 in 200 ml of SD medium under shaking until OD 660 reaches 0.5; • 2) Suspending the collected cells in 5 ml of TE-buffer; • 3) Adding 250 μL of 2.5M lithium acetate; • 4) Dispending each 300 μl, adding 10 μl of above plasmid vector thereto, then incubating the suspensions at 30° C. for 30 minutes; • 5) Adding 700 μl of 50% PEG4000, and incubating the mixture under shaking at 30° C. for 60 minutes; • 6) Giving heat shock (42° C., 5 minutes), and then immediately cooling the mixture; • 7) Washing the mixture twice with 1M sorbitol; and • 8) Seeding it on agar plates made of minimum essential medium.
The cells of SC-YCR102C-pQBI as prepared in Example 3 were contacted to one of the following compounds. The yeast cells SC-YCR102C-pQBI were incubated at 25° C. in SD medium (Yeast nitrogen base without amino acids (Difco 0919-15)+glucose+amino acids (adenine, histidine, tryptophan)). One of toxic chemical substances as shown below was added to the cells at logarithmic growth phase, and then the cells were further incubated for two hours.

Assay [2] relates to promoter of yeast gene YLR303w. The assay is classed as cell-based, Saccharomyces cerevisiae W303. Conditions: for expression of GFP: SC-YCR303W-pQBI cells (so in the source), summary of Table 14.
Source text: as §1, §2
as §3, with “pQBI” for “PQBI”, “GAL1” for “GALL”, “YLR303w” for “YCR102c”, “5)” for “2)”
as §4
The cells of SC-YCR303W-pQBI as prepared in Example 6 were contacted to one of the following compounds. The yeast cells SC-YCR303W-pQBI were incubated at 25° C. in SD medium (Yeast nitrogen base without amino acids (Difco 0919-15)+glucose+amino acids (adenine, histidine, tryptophan)). One of toxic chemical substances as shown below was added to the cells at logarithmic growth phase, and then the cells were further incubated for two hours.

Where [3] appears, read: cells SC-YCR102C-pQBI, 2 hours incubation with the substance at the concentration printed in its row (column Concentrations), GFP fluorescence vs control without chemical.
The mark [4] stands for this setting: cells SC-YCR303W-pQBI (so in the source), 2 hours incubation with the substance at the concentration printed in its row (column Concentrations), GFP fluorescence vs control without chemical.

Like-named read-outs stand apart in the source and are kept apart here.

For the compound `CCN(CC)C(=O)SCc1ccc(Cl)cc1` [S-4-Chlorobenzyl-N,N-diethylthiocarbamate], the Fluorescence result in assay [1] (setting [3]) and in assay [2] (setting [4]) was “− (the number of the cells having a higher fluorescence than the control was under 1%)” throughout.
For `CC(=O)O.Cc1nc(N)cc2[nH]c3ccccc3c12` [Trp-P-2 (acetate)], the Fluorescence result was “− (key: −: the number of the cells having a higher fluorescence than the control was under 1%; +: between 1% and 2%; ++: 2% or more)” in assay [1]; “− (key: −: the number of the cells having a higher fluorescence than the control was under 1%; +: between 1% and 2%; ++: 2% or more)” in assay [2].
Turning to `[Cl][Ni][Cl]` [nickel (II) chloride], the Fluorescence result was “− (key: −: the number of the cells having a higher fluorescence than the control was under 1%; +: between 1% and 2%; ++: 2% or more)” in assay [1]; “− (key: −: the number of the cells having a higher fluorescence than the control was under 1%; +: between 1% and 2%; ++: 2% or more)” in assay [2].
Consider γ-hexachlorocyclohexane [(7)], for which the Fluorescence result in assay [1] (setting [3]) and in assay [2] (setting [4]) was “− (the number of the cells having a higher fluorescence than the control was under 1%)” throughout.
For Na2As [(1)], the values for the Fluorescence result in assay [1] (setting [3]) and in assay [2] (setting [4]) were “− (the number of the cells having a higher fluorescence than the control was under 1%)” and “++ (2% or more)”, respectively. For the same compound, the “expression of GFP” value in assay [2] is recorded as “induced the expression of GFP”.
With `O=S(=O)([O-])[O-].[Cu+2]` [copper sulfate (II)], the Fluorescence entry in assay [1] is “− (key: −: the number of the cells having a higher fluorescence than the control was under 1%; +: between 1% and 2%; ++: 2% or more)”; in assay [2] it was “− (key: −: the number of the cells having a higher fluorescence than the control was under 1%; +: between 1% and 2%; ++: 2% or more)”.
Turning to `CCCCC(CC)COC(=O)c1ccccc1C(=O)OCC(CC)CCCC` (centres unmarked), the Fluorescence entry in assay [1] (setting [3]) and in assay [2] (setting [4]) was “− (the number of the cells having a higher fluorescence than the control was under 1%)” each time.
Consider `CN(C)C(=S)SSC(=S)N(C)C` [(10), Tetramethylthiuram disulfide], for which the “expression of GFP” value in assay [1] (SC-YCR102C-pQBI cells, summary of Table 11) was “induced the expression of GFP”.
For “manganese ethylenebis(dithiocarbamate) [(8)]”, in assay [1] (setting [3]), the Fluorescence entry is “− (the number of the cells having a higher fluorescence than the control was under 1%)”. Also, the “expression of GFP” value in assay [2] is recorded as “induced the expression of GFP”.
In the case of `CCOC(=O)CC(SP(=S)(OC)OC)C(=O)OCC` (centres unmarked) [malathon], the Fluorescence entry in assay [1] (setting [3]) and in assay [2] (setting [4]) was “− (the number of the cells having a higher fluorescence than the control was under 1%)” each time.
Regarding CdCl2 [(2)], the Fluorescence entry in assay [1] (setting [3]) is given as “− (the number of the cells having a higher fluorescence than the control was under 1%)”; in assay [2] (setting [4]) it was “++ (2% or more)”. For the same compound, in assay [2], the “expression of GFP” value is recorded as “induced the expression of GFP”.
The matching figures for HgCl2 [(3)]: “− (the number of the cells having a higher fluorescence than the control was under 1%)”, “++ (2% or more)” and “induced the expression of GFP”.
As for `[K+].[K+].[O]=[Cr](=[O])([O-])[O][Cr](=[O])(=[O])[O-]` [potassium bichromate], the Fluorescence entry in assay [1] (setting [3]) and in assay [2] (setting [4]) was “− (the number of the cells having a higher fluorescence than the control was under 1%)” each time.
For the compound `[CH3][Hg][Cl]` [methylmercury chloride], the Fluorescence entry in assay [1] (setting [3]) and in assay [2] (setting [4]) was “− (the number of the cells having a higher fluorescence than the control was under 1%)” each time.
On to `[Cl][Sn]([c]1ccccc1)([c]1ccccc1)[c]1ccccc1` [triphenyltin chloride], for which the Fluorescence entry in assay [1] (setting [3]) and in assay [2] (setting [4]) was “− (the number of the cells having a higher fluorescence than the control was under 1%)” throughout.
